Experimental data: the supplement of paper PMC10307832

Key:
Assay in all cases: relative viability (nuclei count vs DMSO), 5 days (fraction); higher = more cells survive
[1] = system: A-427
Outline: (§1)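 Medians of duplicate plates are given as relative viability. That measure is the nuclei count in treated wells divided by the count in vehicle wells. Counts were taken on 4× images of lung cancer cell lines in 1536-well plates, 5 days after pin-tool dosing the day after seeding with one drug alone or a fixed anchor-drug dose plus five library-drug doses (not always all listed) in √10 steps.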

[2] = system: COR-L 105
Outline: as §1

[3] = system: ChaGo-K-1
Outline: as §1

[4] = system: EKVX
Outline: as §1

[5] = system: EMC-BAC-2
Outline: as §1

[6] = system: EPLC-272H
Outline: as §1

[7] = system: HARA
Outline: as §1

[8] = system: HCC-44
Outline: as §1

[9] = system: LK-2
Outline: as §1

[10] = system: LU99A
Outline: as §1

[11] = system: NCI-H1650
Outline: as §1

[12] = system: NCI-H1734
Outline: as §1

[13] = system: NCI-H1755
Outline: as §1

[14] = system: NCI-H1792
Outline: as §1

[15] = system: NCI-H1993
Outline: as §1

[16] = system: NCI-H2405
Outline: as §1

[17] = system: NCI-H358
Outline: as §1

[18] = system: NCI-H460
Outline: as §1

[19] = system: NCI-H596
Outline: as §1

[20] = system: NCI-H647
Outline: as §1

[21] = system: RERF-LC-KJ
Outline: as §1

CCNC(=O)c1noc(-c2cc(C(C)C)c(O)cc2O)c1-c1ccc(CN2CCOCC2)cc1 [Luminespib] + C[C@@H](Oc1cc(-c2cnn(C3CCNCC3)c2)cnc1N)c1c(Cl)ccc(F)c1Cl [Crizotinib] (partner 1 µM)
relative viability ([1]; first compound 0.002 µM): 1.09 | relative viability ([1]; first compound 0.006325 µM): 0.796 | relative viability ([1]; first compound 0.02 µM): 0.955 | relative viability ([1]; first compound 0.06325 µM): 0.873 | relative viability ([1]; first compound 0.2 µM): 0.835 | relative viability ([2]; first compound 0.002 µM): 0.996 | relative viability ([2]; first compound 0.006325 µM): 0.897 | relative viability ([2]; first compound 0.02 µM): 0.976 | relative viability ([2]; first compound 0.06325 µM): 0.165 | relative viability ([2]; first compound 0.2 µM): 0.224 | relative viability ([3]; first compound 0.002 µM): 1.23 | relative viability ([3]; first compound 0.02 µM): 1.01 | relative viability ([3]; first compound 0.06325 µM): 0.562 | relative viability ([3]; first compound 0.2 µM): 0.301 | relative viability ([4]; first compound 0.002 µM): 0.985 | relative viability ([4]; first compound 0.006325 µM): 0.989 | relative viability ([4]; first compound 0.02 µM): 0.97 | relative viability ([4]; first compound 0.06325 µM): 0.472 | relative viability ([4]; first compound 0.2 µM): 0.218 | relative viability ([5]; first compound 0.002 µM): 0.844 | relative viability ([5]; first compound 0.006325 µM): 0.772 | relative viability ([5]; first compound 0.02 µM): 0.584 | relative viability ([5]; first compound 0.06325 µM): 0.729 | relative viability ([5]; first compound 0.2 µM): 0.759 | relative viability ([6]; first compound 0.006325 µM): 0.892 | relative viability ([6]; first compound 0.02 µM): 0.655 | relative viability ([6]; first compound 0.06325 µM): 0.88 | relative viability ([6]; first compound 0.2 µM): 0.917 | relative viability ([7]; first compound 0.002 µM): 1.02 | relative viability ([7]; first compound 0.006325 µM): 0.957 | relative viability ([7]; first compound 0.02 µM): 1.17 | relative viability ([7]; first compound 0.06325 µM): 1.06 | relative viability ([7]; first compound 0.2 µM): 0.0699 | relative viability ([8]; first compound 0.002 µM): 0.843 | relative viability ([8]; first compound 0.006325 µM): 0.768 | relative viability ([8]; first compound 0.02 µM): 1 | relative viability ([8]; first compound 0.06325 µM): 0.12 | relative viability ([8]; first compound 0.2 µM): 0.091 | relative viability ([9]; first compound 0.002 µM): 0.215 | relative viability ([9]; first compound 0.006325 µM): 0.217 | relative viability ([9]; first compound 0.02 µM): 0.269 | relative viability ([9]; first compound 0.06325 µM): 0.231 | relative viability ([9]; first compound 0.2 µM): 0.196 | relative viability ([10]; first compound 0.002 µM): 0.606 | relative viability ([10]; first compound 0.006325 µM): 0.628 | relative viability ([10]; first compound 0.02 µM): 0.343 | relative viability ([10]; first compound 0.06325 µM): 0.127 | relative viability ([10]; first compound 0.2 µM): 0.112 | relative viability ([11]; first compound 0.002 µM): 0.944 | relative viability ([11]; first compound 0.006325 µM): 0.928 | relative viability ([11]; first compound 0.02 µM): 0.7 | relative viability ([11]; first compound 0.06325 µM): 0.12 | relative viability ([11]; first compound 0.2 µM): 0.134 | relative viability ([12]; first compound 0.002 µM): 0.77 | relative viability ([12]; first compound 0.006325 µM): 0.612 | relative viability ([12]; first compound 0.02 µM): 0.566 | relative viability ([12]; first compound 0.06325 µM): 0.135 | relative viability ([12]; first compound 0.2 µM): 0.0997 | relative viability ([13]; first compound 0.002 µM): 0.878 | relative viability ([13]; first compound 0.006325 µM): 0.882 | relative viability ([13]; first compound 0.02 µM): 0.938 | relative viability ([13]; first compound 0.06325 µM): 0.756 | relative viability ([13]; first compound 0.2 µM): 0.315 | relative viability ([14]; first compound 0.002 µM): 0.981 | relative viability ([14]; first compound 0.006325 µM): 0.906 | relative viability ([14]; first compound 0.02 µM): 0.955 | relative viability ([14]; first compound 0.06325 µM): 0.435 | relative viability ([14]; first compound 0.2 µM): 0.119 | relative viability ([15]; first compound 0.002 µM): 0.929 | relative viability ([15]; first compound 0.006325 µM): 0.953 | relative viability ([15]; first compound 0.02 µM): 0.884 | relative viability ([15]; first compound 0.06325 µM): 0.743 | relative viability ([15]; first compound 0.2 µM): 0.47 | relative viability ([16]; first compound 0.002 µM): 0.829 | relative viability ([16]; first compound 0.006325 µM): 0.644 | relative viability ([16]; first compound 0.02 µM): 0.705 | relative viability ([16]; first compound 0.06325 µM): 0.615 | relative viability ([16]; first compound 0.2 µM): 0.257 | relative viability ([17]; first compound 0.002 µM): 0.699 | relative viability ([17]; first compound 0.006325 µM): 0.647 | relative viability ([17]; first compound 0.02 µM): 0.608 | relative viability ([17]; first compound 0.06325 µM): 0.0797 | relative viability ([17]; first compound 0.2 µM): 0.0988 | relative viability ([18]; first compound 0.002 µM): 0.957 | relative viability ([18]; first compound 0.006325 µM): 0.705 | relative viability ([18]; first compound 0.02 µM): 0.0276 | relative viability ([18]; first compound 0.06325 µM): 0.0089 | relative viability ([18]; first compound 0.2 µM): 0.0097 | relative viability ([19]; first compound 0.002 µM): 1.05 | relative viability ([19]; first compound 0.006325 µM): 1 | relative viability ([19]; first compound 0.06325 µM): 0.851 | relative viability ([19]; first compound 0.2 µM): 0.938 | relative viability ([20]; first compound 0.002 µM): 1.22 | relative viability ([20]; first compound 0.006325 µM): 1.07 | relative viability ([20]; first compound 0.02 µM): 1.15 | relative viability ([20]; first compound 0.06325 µM): 0.0916 | relative viability ([20]; first compound 0.2 µM): 0.0805 | relative viability ([21]; first compound 0.002 µM): 0.817 | relative viability ([21]; first compound 0.006325 µM): 0.791 | relative viability ([21]; first compound 0.02 µM): 0.877 | relative viability ([21]; first compound 0.06325 µM): 0.948 | relative viability ([21]; first compound 0.2 µM): 0.223
